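Protocol summary: plate cells (96-well), add compound at 5 concentrations, incubate 48 h, interpolate endpoints linearly. At the GI50, growth is halved.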 Calls of active or inactive are those of the source. No stated cut-off is given here; in the data, active = GI50 up to about 1.1 µM and inactive = higher.
Columns and labels:
Assay in all cases: inhibition of tumour cell growth, NCI panel, 48 h
U-251 = system: U-251
MOLT-4 = system: MOLT-4
SF-295 = system: SF-295
LOX IMVI = system: LOX IMVI
NCI-H226 = system: NCI-H226
UACC-62 = system: UACC-62
Hs-578T = system: Hs-578T
HOP-92 = system: HOP-92
OVCAR-3 = system: OVCAR-3
HCT-15 = system: HCT-15
SR = system: SR
SNB-19 = system: SNB-19
K562 = system: K562
CAKI-1 = system: CAKI-1
COLO 205 = system: COLO 205
HL-60 = system: HL-60
NCI-H522 = system: NCI-H522
PC-3 = system: PC-3
CCRF-CEM = system: CCRF-CEM
OVCAR-8 = system: OVCAR-8

SMILES: OC(c1ccoc1)c1cc2ccccc2s1 (stereo not given)
- GI50 (U-251): > 10 µM (inactive)
- GI50 (MOLT-4): > 10 µM (inactive)
- GI50 (SF-295): > 10 µM (inactive)
- GI50 (LOX IMVI): > 10 µM (inactive)
- GI50 (NCI-H226): > 10 µM (inactive)
- GI50 (UACC-62): > 10 µM (inactive)
- GI50 (Hs-578T): > 10 µM (inactive)
- GI50 (HOP-92): > 10 µM (inactive)
- GI50 (OVCAR-3): > 10 µM (inactive)
- GI50 (HCT-15): > 10 µM
- GI50 (SR): > 10 µM (inactive)
- GI50 (SNB-19): > 10 µM (inactive)
- GI50 (K562): > 10 µM (inactive)
- GI50 (CAKI-1): > 10 µM (inactive)
- GI50 (COLO 205): > 10 µM (inactive)
- GI50 (HL-60): > 10 µM (inactive)
- GI50 (NCI-H522): > 10 µM (inactive)
- GI50 (PC-3): > 10 µM (inactive)
- GI50 (CCRF-CEM): > 10 µM (inactive)
- GI50 (OVCAR-8): > 10 µM (inactive)

SMILES: CC1=NN(c2cccc(S(=O)(=O)O)c2)C2(C1)C(Cl)C(=O)N2c1nc2ccccc2s1 (stereo not given)
- GI50 (U-251): 5.85 µM (inactive)
- GI50 (MOLT-4): 2.88 µM (inactive)
- GI50 (SF-295): 13.8 µM (inactive)
- GI50 (LOX IMVI): 1.25 µM (inactive)
- GI50 (NCI-H226): 5.82 µM (inactive)
- GI50 (UACC-62): 6.81 µM (inactive)
- GI50 (Hs-578T): 11.7 µM (inactive)
- GI50 (HOP-92): 2.57 µM (inactive)
- GI50 (OVCAR-3): 2.94 µM (inactive)
- GI50 (HCT-15): 4.04 µM
- GI50 (SR): 7.08 µM (inactive)
- GI50 (SNB-19): 11.2 µM (inactive)
- GI50 (K562): 3.86 µM (inactive)
- GI50 (CAKI-1): 2.9 µM (inactive)
- GI50 (COLO 205): 8.3 µM (inactive)
- GI50 (HL-60): 2.61 µM (inactive)
- GI50 (NCI-H522): 1.81 µM (inactive)
- GI50 (PC-3): 10.5 µM (inactive)
- GI50 (CCRF-CEM): 1.26 µM (inactive)
- GI50 (OVCAR-8): 5.65 µM (inactive)

SMILES: COc1ccc2[nH]cc(C=C3C(=O)NC(=S)NC3=O)c2c1
- GI50 (U-251): 24.2 µM (inactive)
- GI50 (MOLT-4): 62.4 µM (inactive)
- GI50 (SF-295): 94.8 µM (inactive)
- GI50 (LOX IMVI): > 100 µM (inactive)
- GI50 (NCI-H226): > 100 µM (inactive)
- GI50 (UACC-62): > 100 µM (inactive)
- GI50 (Hs-578T): 45.8 µM (inactive)
- GI50 (HOP-92): 73.6 µM (inactive)
- GI50 (OVCAR-3): > 100 µM (inactive)
- GI50 (HCT-15): > 100 µM
- GI50 (SR): 30.1 µM (inactive)
- GI50 (SNB-19): 62.1 µM (inactive)
- GI50 (K562): > 100 µM (inactive)
- GI50 (CAKI-1): > 100 µM (inactive)
- GI50 (COLO 205): > 100 µM (inactive)
- GI50 (HL-60): > 100 µM (inactive)
- GI50 (NCI-H522): > 100 µM (inactive)
- GI50 (PC-3): > 100 µM (inactive)
- GI50 (CCRF-CEM): 71.8 µM (inactive)
- GI50 (OVCAR-8): 36.6 µM (inactive)

SMILES: BrCC[N+]12CCCN1CCC2
- GI50 (U-251): 16.5 µM (inactive)
- GI50 (MOLT-4): 3.43 µM (inactive)
- GI50 (SF-295): > 72.9 µM (inactive)
- GI50 (LOX IMVI): 11.5 µM (inactive)
- GI50 (NCI-H226): 33.2 µM (inactive)
- GI50 (UACC-62): 8.83 µM (inactive)
- GI50 (Hs-578T): 0.692 µM (active)
- GI50 (HOP-92): 5.22 µM (inactive)
- GI50 (OVCAR-3): 13.9 µM (inactive)
- GI50 (HCT-15): 12.3 µM
- GI50 (SR): 1.68 µM (inactive)
- GI50 (SNB-19): > 43 µM (inactive)
- GI50 (K562): 2.9 µM (inactive)
- GI50 (CAKI-1): 1.03 µM (active)
- GI50 (COLO 205): 4.14 µM (inactive)
- GI50 (HL-60): 2.9 µM (inactive)
- GI50 (NCI-H522): 0.664 µM (active)
- GI50 (PC-3): 17.1 µM (inactive)
- GI50 (CCRF-CEM): 1.59 µM (inactive)
- GI50 (OVCAR-8): 19 µM (inactive)

SMILES: CC(=O)OCC(C)C1=C(O)C(=O)C2(C)C/C=C(/C)CC/C=C(\C)CCC(O)C(C)CCC12 (stereo not given)
- GI50 (U-251): 17 µM (inactive)
- GI50 (MOLT-4): 10 µM (inactive)
- GI50 (SF-295): 15.6 µM (inactive)
- GI50 (LOX IMVI): 18.1 µM (inactive)
- GI50 (NCI-H226): 17.6 µM (inactive)
- GI50 (UACC-62): 18.8 µM (inactive)
- GI50 (Hs-578T): 19.6 µM (inactive)
- GI50 (HOP-92): 18 µM (inactive)
- GI50 (OVCAR-3): 15.1 µM (inactive)
- GI50 (HCT-15): 17.6 µM
- GI50 (SR): 7.89 µM (inactive)
- GI50 (SNB-19): 18.4 µM (inactive)
- GI50 (K562): 14.1 µM (inactive)
- GI50 (CAKI-1): 17.3 µM (inactive)
- GI50 (COLO 205): 17.1 µM (inactive)
- GI50 (HL-60): 17.5 µM (inactive)
- GI50 (NCI-H522): 17.3 µM (inactive)
- GI50 (PC-3): 15.3 µM (inactive)
- GI50 (CCRF-CEM): 21.5 µM (inactive)
- GI50 (OVCAR-8): 18.1 µM (inactive)

SMILES: O=c1cc(N2CCOCC2)n2c(ccc3ccccc32)n1
- GI50 (U-251): > 100 µM (inactive)
- GI50 (MOLT-4): > 100 µM (inactive)
- GI50 (SF-295): > 100 µM (inactive)
- GI50 (LOX IMVI): > 100 µM (inactive)
- GI50 (NCI-H226): > 100 µM (inactive)
- GI50 (UACC-62): > 100 µM (inactive)
- GI50 (Hs-578T): > 100 µM (inactive)
- GI50 (HOP-92): > 100 µM (inactive)
- GI50 (OVCAR-3): > 100 µM (inactive)
- GI50 (HCT-15): > 100 µM
- GI50 (SR): > 100 µM (inactive)
- GI50 (SNB-19): > 100 µM (inactive)
- GI50 (K562): > 100 µM (inactive)
- GI50 (CAKI-1): > 100 µM (inactive)
- GI50 (COLO 205): > 100 µM (inactive)
- GI50 (HL-60): > 100 µM (inactive)
- GI50 (NCI-H522): > 100 µM (inactive)
- GI50 (PC-3): > 100 µM (inactive)
- GI50 (CCRF-CEM): > 100 µM (inactive)
- GI50 (OVCAR-8): > 100 µM (inactive)

SMILES: Cc1ccc(NCC2CC/C(=C\c3ccc(Cl)cc3)C2=O)cc1 (stereo not given)
- GI50 (U-251): 17 µM (inactive)
- GI50 (MOLT-4): 3.84 µM (inactive)
- GI50 (SF-295): 28.1 µM (inactive)
- GI50 (LOX IMVI): 6.03 µM (inactive)
- GI50 (NCI-H226): > 76.6 µM (inactive)
- GI50 (UACC-62): 18.4 µM (inactive)
- GI50 (Hs-578T): 29 µM (inactive)
- GI50 (HOP-92): 0.569 µM (active)
- GI50 (OVCAR-3): 14.3 µM (inactive)
- GI50 (HCT-15): 1.94 µM
- GI50 (SR): 3.87 µM (inactive)
- GI50 (SNB-19): 21.2 µM (inactive)
- GI50 (K562): 1.74 µM (inactive)
- GI50 (CAKI-1): 15.2 µM (inactive)
- GI50 (COLO 205): 14.8 µM (inactive)
- GI50 (HL-60): 2.16 µM (inactive)
- GI50 (NCI-H522): 7.38 µM (inactive)
- GI50 (PC-3): 14.9 µM (inactive)
- GI50 (CCRF-CEM): 2.39 µM (inactive)
- GI50 (OVCAR-8): 15.9 µM (inactive)

SMILES: NC(=S)N/N=C/c1c[nH]c2ccccc12
- GI50 (U-251): > 100 µM (inactive)
- GI50 (MOLT-4): 12.3 µM (inactive)
- GI50 (SF-295): > 100 µM (inactive)
- GI50 (LOX IMVI): > 100 µM (inactive)
- GI50 (NCI-H226): > 100 µM (inactive)
- GI50 (UACC-62): > 100 µM (inactive)
- GI50 (Hs-578T): > 100 µM (inactive)
- GI50 (HOP-92): 21.6 µM (inactive)
- GI50 (OVCAR-3): > 100 µM (inactive)
- GI50 (HCT-15): > 100 µM
- GI50 (SR): > 100 µM (inactive)
- GI50 (SNB-19): > 100 µM (inactive)
- GI50 (K562): > 100 µM (inactive)
- GI50 (CAKI-1): > 100 µM (inactive)
- GI50 (COLO 205): > 100 µM (inactive)
- GI50 (HL-60): 33.7 µM (inactive)
- GI50 (NCI-H522): 52.5 µM (inactive)
- GI50 (PC-3): > 100 µM (inactive)
- GI50 (CCRF-CEM): 10.8 µM (inactive)
- GI50 (OVCAR-8): > 100 µM (inactive)

SMILES: CCOC(=O)c1ncn(CCc2ccc(Cl)cc2)c1C
- GI50 (U-251): > 100 µM (inactive)
- GI50 (MOLT-4): > 100 µM (inactive)
- GI50 (SF-295): 70.8 µM (inactive)
- GI50 (LOX IMVI): > 100 µM (inactive)
- GI50 (NCI-H226): > 100 µM (inactive)
- GI50 (UACC-62): 42.4 µM (inactive)
- GI50 (Hs-578T): > 100 µM (inactive)
- GI50 (HOP-92): > 100 µM (inactive)
- GI50 (OVCAR-3): > 100 µM (inactive)
- GI50 (HCT-15): > 100 µM
- GI50 (SR): 68.2 µM (inactive)
- GI50 (SNB-19): > 100 µM (inactive)
- GI50 (K562): > 100 µM (inactive)
- GI50 (CAKI-1): 80.2 µM (inactive)
- GI50 (COLO 205): > 100 µM (inactive)
- GI50 (HL-60): > 100 µM (inactive)
- GI50 (NCI-H522): 34.4 µM (inactive)
- GI50 (PC-3): > 100 µM (inactive)
- GI50 (CCRF-CEM): > 100 µM (inactive)
- GI50 (OVCAR-8): > 100 µM (inactive)

Source: ChEMBL document CHEMBL1201862, “PubChem BioAssay data set” (2004)
